For test [1], the system named is CFA-induced pain model in rats. Description: Antiallodynic activity on Complete Freund's Adjuvant (CFA)-induced inflammatory pain model. Type of test: in vivo, Sprague-Dawley rats. The settings on record: Rattus norvegicus, ip, 50 mg/kg intraperitoneally, von Frey threshold relative to sham, 0.5 hr after administration, read-out: Efficacy of 50 mg/kg(%). As for the experimental part: Male, Sprague-Dawley rats (210-250 g, Nara Bio, Korea) were habituated for 1 week before surgery and allowed free access to food and water throughout the experimentation. Room temperature and humidity were maintained at 24±2 and 50±10%, respectively.
CFA-induced inflammatory pain was induced by the procedure of Nagakura et al. (2003) and Gregory P. et al. (2010) with minor modifications. CFA (sigma, USA) was injected in the right plantar with a 100 ul volume under gaseous anesthesia with isoflurane. Sham controls were injected with 100 ul of saline, and preparation of the vehicle controls were identical to the group treated with compound, except for administration of vehicles without indentical to the vihecle control group.
Tactile sensitivity (Mechanical allodynia) was evaluated using von Frey monofilaments before and after treatment, and animals were include in the study only if the withdrawal threshold value was less than 4 g. One week after CFA injection, CFA-infused animals, sham-operated animal, and vehicle-operated animals were tested for tactile sensitivity with von Frey monofilaments, with 3 trials for each animal. All Animals were placed in a stainless steel mashe chamber and habituated for 30 min in the test cage. The tactile sensitivity for ipsilateral hind paw was measured using the up-and-down method (Dixon, 1980) with seven von Frey monofilaments (0.4, 1, 2, 4, 6, 8, and 15 g) to 3 trials. The tactile sensitivity test was followed by Dixon's method (Dixon, 1980). The 50% paw withdrawal threshold for each paw was calculated using the following formula: [Xth]log=[vFr]log+ky where [vFr] is the force of the last von Frey used, k=0.2249 which is the average interval (in log units) between the von Frey monofilaments, and y is a value that depends upon the pattern of withdrawal responses (Dixon, 1980).
Antiallodynic effect of compounds was evaluated at the dose of 50 mg/kg (n=4-6), intraperitoneally administrated in a volume of 5 ul/g bw in a vehicle of 30% (v/v) PEG or 20% (v/v) Tween 80. The test was performed peak time of efficacy (0.5 hr) after compound administration.
The relative values compared to the sham (% control) were calculated and shown in Table 5, which show an antiallodynic effect of Compound 1 on CFA-induced pain model in rats.

The subject of test [2] is MES (electroshock) seizure in mice. The test is described as follows: Anti-epilepsy activity, MES test in mouse. Type of test: in vivo, ICR mice. The settings on record: po. As for the experimental part: (§1) In the MES test (Ref., G. Villetti et al. Neuropharmacology 40(2001) 866-878), an electrical stimulus (mice: 50 mA, 60 Hz, 0.2 sec, and rats: 150 mA, 60 Hz, 0.2 sec in the test animal) supplied by an 11A Shocker (IITC Life Science Company) was delivered through corneal electrodes. All mice or rats assigned to any electroshock at peak time were treated with each test compound sample which was dissolved in 20% tween 80 prepared by saline solvent applied orally before the test. […] Three doses of the test sample were administered orally to 9-18 animals (3-6 mice per dose) for evaluating the respective doses at which 50% of the animals were protected from seizure (ED50). The ED50 value (median effective dose) was calculated by Litchfield and Wicoxon log-probit method which is a dose-response relationship. Experimental animals, male ICR mice and male SD rats, were purchased from OrientBio, Samtako, or Nara Biotech, Korea, and housed in cages (4-5 mice or 3 rats per cage) for 4-5 days. The range of mice body weight was between 19 and 25 grams and range of rats body weight was between 100 and 130 grams.

For test [3], the system named is MES (electroshock) seizure in rats. Description: Anti-epilepsy activity, MES test in rats. Type of test: in vivo, SD rats. The settings on record: Rattus norvegicus, po. Here is the method: as §1
Test [4] has as its system PTZ (Pentylenetetrazol)-induced clonic seizure in mice. The test is described as follows: Anti-epilepsy activity, scPTZ test in mouse. Format: in vivo, ICR mice. The following applies: ip. From the text:
(§2) In this experiment, each test compound sample was formulated as described in Biological Experimental Example 1, and administered intraperitoneally to the test animals (mice; ICR or Rat; SD); Experimental animals, male ICR mice and male SD rats, were purchased from OrientBio or Nara biotech, Korea, and housed 4-5 mice per a cage for 4-5 days. The range of mice body weight was used between 19 and 26 grams and range of rats body weight was used between 100 and 130 grams. After Peak time (0.5, 1, 2 and 4 hr) from the administration, PTZ (Pentylenetetrazol) was administered subcutaneously in the concentration capable of inducing 97% intermittent convulsions (mice: 100-110 mg/kg?bw, 10 μl/g, or rats: 90-110 mg/kg?bw, 2 μl/g). If clonic seizure was not observed for at least 30 minutes in the PTZ administered animal, it can be considered that the test compound has anti-epilepsy activity. The median effective dose (ED50) is determined using 6 animals per a concentration (total three different concentrations), and calculated by Litchfield and Wicoxon log-probit method which is a dose-response relationship.

The subject of test [5] is PTZ (Pentylenetetrazol)-induced clonic seizure in rats. The test is described as follows: Anti-epilepsy activity, scPTZ test in rats. Type of test: in vivo, SD rats.
From the text: as §2

For test [6], the system named is Lithium-pilocarpine induced seizure in rats. Description: Lithium-pilocarpine induced epilepsy test (LI-PILO), prevention test. Format: in vivo, Sprague-Dawley rats. The settings on record: Rattus norvegicus, ip, prevention, read-out: Lithium pilocarpine model (pre) ED50. As for the experimental part:
Male Sprague-Dawley rats (purchased from Orient Bio Inc. Korea) of body weight 175 grams were used for these studies and 3 rats per cage were housed for 4-5 days. On the day prior to SE, rats received 127 mg/kg lithium chloride (Sigma, St. Louis, Mo., U.S.A.) intraperitoneally (i.p.). Approximately 18-20 h following this treatment, rats were given an i.p. injection of the concentration capable of inducing 97% intermittent convulsions pilocarpine(Sigma, 30-43 mg/kg). An i.p. injection of 2 mg/kg methyl-scopolamine (Sigma) was administered 30 min prior to pilocarpine to block the effects of the muscarinic agonist on peripheral cholinergic receptors. Test drugs were dissolved in 20% tween80 (Sigma).
The drugs were administered intraperitoneally (i.p.) in a volume of 2 μl/g body weight. Pharmacological effects of all of the test materials were evaluated to compare test groups (n=6) with a control group (n=6). Control group was administered vehicle only. The efficacy was measured 0.5, 1, 2, or 4 hours after the administration of the test material. The time point that the most animals were protected was defined as peak time and the ED50 was determined at peak time. The animals were then transferred to observation cages and observed continuously for 90 min Seizure was elicited in approximately 95% of the control group. Protection was defined as complete absence of seizure grade 3-5 (Racine scale; Racine, 1972) over the 90-min observation period. The effective dose of the compound necessary to protect 50% of the animals against seizures compared to controls (i.e., ED50) was determined by a curve fitting program (Excel 2007, Microsoft).

Test [7] has as its system Picrotoxin (PIC)-induced clonic seizure in mice. Description: Chemical induced seizure model (PIC). The settings on record: mice, dose 50 mg/kg. Type of test: in vivo, ICR mice. Here is the method:
Picrotoxin (PIC) were used to induce the behavioral seizures in the experiments. Male ICR mice (purchased from Orient Bio Inc. Korea) of body weight 19-26 g (mice) were used for these studies. The test materials were administered intraperitoneal (ip) route in a volume of 10 ul/g (mice) weight in rats or mice, respectively. Pharmacological effects of the test materials were evaluated to compared test groups (n=6) with a control group (n=6). Control group was administrated vehicle, only. The peak time was determined by administration of test material's random dose for 0.5, 1, 2, 4 hour. The time that the most protect was defined as a peak time and ED50 was determined by other dose administration at the peak time. Chemical (PIC) was dissolved in 0.9% saline and administered subcutaneously (s.c.) at its CD97 (convulsive dose 97%), the dose of Chemical (PIC) that produced clonic seizures in 97% into a loose fold of skin in the midline of the neck in a volume of 10 ul/g (mice) body weight. The animals were then transferred to observation cages and observed continuously for 45 min. Clonic seizure was elicited in approximately 97% of control group. Protection was defined as a complete absence of clonic seizure over the 45-min observation period. The effective dose of compound necessary to protect against generalized convulsive seizures to 50% of controls (i.e., ED50) was determined by log probit analysis using SPSS software program (SPSS Inc.). (Reference; White H. S., J. H. Woodhead, K. S. Wilcox, J. P. Stables, H. J. Kupferberg, and H. H. Wolf. General Principles; Discovery and Preclinical Development of Antiepileptic Drugs. In: R. H. Levy, R. H. Mattson, B. S. Meldrum, and E. Perucca, eds. Antiepileptic Drugs, 5th Ed. Lippincott Williams & Wilkins, Philadelphia 2002: pp. 36-48.) The obtained results are shown in following Table 10.

The next test deals with ICR mice on hot plate. Description: Hot-plate test. Format: in vivo. The settings on record: Mus musculus, po, orally, withdrawal latency. As for the experimental part: To examine the pain relief effect of the carbamate compounds, a hot-plate test was conducted in referring to Current Protocols in Neuroscience; Behavioral Neuroscience Unit 8.9.
ICR mice (male, 25-28 g; Orient Bio, Korea) were habituated before test (in test room) for 1 hour. Animals were fasted 2 hr before administration of compounds. Compounds were orally administered at the three dose, 10 ul/g, by bodyweight (n=4-6/group). All compounds were dissolved in a vehicle of 30% (v/v) PEG 400 or 20% (v/v) Tween 80. The control group was treated the vehicle without compounds.
0.25-2.0 hr after the administration of compounds, the mice were put on a hot plate pre-heated to 55±1 (Hu, X. et al, 2008), and then, the withdrawal latency time was measured (cut-off time: 30 sec) until the point when each mouse was taking a paw off from the plate, shaking, licking a paw or hind leg, or jumping from the plate.

For test [8], the system named is ICR mice, tail-flick analgesia meter. Description: Tail-flick test. Type of test: in vivo. The settings on record: orally, withdrawal latency. As for the experimental part:
To examine the pain relief effect of the carbamate compounds, a tail-flick test was conducted, referring to Current Protocols in Neuroscience; Behavioral Neuroscience Unit 8.9.
ICR mice (male, 25-30g; Orient Bio, Korea) were habituated before test (in test room) for 1 hour. Animals were fasted 2 hr before administration of compounds. Each of Compound was orally administered at the 1-3 dose, 10 ul/g, by bodyweight (n=4-6/group). All compounds were dissolved in a vehicle of 30% (v/v) PEG 400 or 20% (v/v) Tween 80. The control group was treated the vehicle without compounds.
After the administration of compounds, the mice tail were put on a tail-flick analgesia meter. To avoid tissue damage, maximal exposure time to pain stimuli was restricted to 15 s. The withdrawal latency was measured to the time to the point when each mouse responded. The relative values compared to the control (% control) were calculated.
The relative values compared to the sham were calculated and shown in Table 7, which show effect of the compound of examples on tail-flick test in Mice.

A further test deals with corneally kindled rats. Description: Corneal kindling (CK) rat model. The following applies: po. Format: in vivo, Sprague-Dawley rats. From the text:
Male Sprague-Dawley rats (purchased from Orient Bio Inc. Korea) of body weight 85-100 g were used for these studies. The MES test using the electroshock seizure apparatus designed by Rodent Shocker Type221 (Hugo Sachs Elektronik, Germany). The kindled rat models were electrically stimulated (8 mA, 60 Hz, 2 s, corneal electrodes) twice daily for 21 days until stage 5 seizure scored by Racine's scale (Racine, 1972) were evoked. The kindled rats were fasted and adapted to test condition, for at least 1 hour before the administration of test material. The drugs were administered orally (p.o.) in a volume of 4 μl/g body weight. The corneally kindled rat model test is a model for generalized […] seizures or bipolar disorder and identifies the compound which prevents seizure or bipolar disorder spread. The shock level was set at 8 mA, 60 Hz and the duration was set at 2 s. A drop of 0.9% saline was placed in each eye, the electrodes were placed over the eyes, and the shock was administered immediately. Pharmacological effects of the test materials were evaluated to compare the test groups (n=6) with a control group (n=6). Control group was administrated vehicle, only. The peak time was determined by administration test material's random dose for 0.5, 1, 2, 4 hour. The time that the most protect was defined peak time and ED50 was determined by other dose administration at peak time. […]

Some results are limits rather than exact numbers.

On to `NC(=O)O[C@H]1CCc2cccc(Cl)c2[C@H]1O` [Example 2, (1R, 2S)-8-chloro-1-hydroxy-1,2,3,4-tetrahydronaphthalen-2-yl carbamate], for which, in test [1], the response vs control in vivo at 50 mg/kg was found to be 23.2%. The ED50 in test [2] is 41 mg/kg; in [3], 11.6 mg/kg; in [4] it was 26.6 mg/kg; in test [5] (Rattus norvegicus, ip) it was 39.7 mg/kg; in [6] it was 50 mg/kg. In addition, the “PIC(ip) efficacy %” value in test [7] is 50 (66.6%).

Turning to `NC(=O)O[C@H]1Cc2cccc(Cl)c2[C@H]1O` [Example 52, (1R, 2S)-7-chloro-1-hydroxy-2,3-dihydro-1H-inden-2-yl carbamate], the response vs control in vivo at 50 mg/kg in [1] came to 34.7%. For the same compound, the ED50 came out at 119 mg/kg in the test with ICR mice on hot plate, 24.3 mg/kg in [2], 10.9 mg/kg in [3] and 63 mg/kg in test [6]. In addition, the “Tail-flick test Dose” value in test [8] was more than 200 mg/kg. Moreover, in [5] (dose 100 mg/kg), the “scPTZ test (ip) efficacy %” value is 100 (33.3%,.

`NC(=O)O[C@@H]1Cc2cc(Cl)cc(Cl)c2[C@@H]1O` [Example 59, (1S, 2R)-5,7-dichloro-1-hydroxy-2,3-dihydro-1H-inden-2-yl carbamate]: the ED50 was determined as 56.5 mg/kg in test [2] and 21.4 mg/kg with corneally kindled rats.

The values above are taken from US11168052B2, “Carbamate derivative compounds, processes for preparing them and their uses” (BIO-PHARM SOLUTIONS CO., LTD., priority 2016, dated 2021).
